Laboratory results as given in ChEMBL document CHEMBL1146419, “Antimicrobial and cytotoxic phenolic glycoside esters from the New Zealand tree Toronia toru” (J Nat Prod, 1997).
Converted amounts (≈) assume the structure as drawn.

Assays:
[1] = system: Trichophyton mentagrophytes; assay: Antimicrobial activity against Trichophyton mentagrophytes at 60 ug/disk; assay type: functional; details: read-out: IZ
[2] = system: Trichophyton mentagrophytes; assay: Antimicrobial activity against Trichophyton mentagrophytes at 30 ug/disk; assay type: functional; details: read-out: IZ
[3] = Cytotoxicity against african green monkey BSC1 cells at 120 ug/disk; assay type: cell-based; details: chlorocebus aethiops, bsc-1
[4] = Cytotoxicity against african green monkey BSC1 cells at 60 ug/disk; assay type: cell-based; details: chlorocebus aethiops, bsc-1
[5] = Cytotoxicity against african green monkey BSC1 cells at 30 ug/disk; assay type: cell-based; details: chlorocebus aethiops, bsc-1
[6] = Cytotoxicity against african green monkey BSC1 cells at 15 ug/disk; assay type: cell-based; details: chlorocebus aethiops, bsc-1
P388 = assay: Cytotoxicity against mouse P388 cells; assay type: functional, cell-based
Bacillus subtilis [7] = assay: Antimicrobial activity against Bacillus subtilis at 120 ug/disk; assay type: functional; details: read-out: IZ
Bacillus subtilis [8] = assay: Antimicrobial activity against Bacillus subtilis at 60 ug/disk; assay type: functional; details: read-out: IZ
Bacillus subtilis [9] = assay: Antimicrobial activity against Bacillus subtilis at 30 ug/disk; assay type: functional; details: read-out: IZ
Escherichia coli [10] = assay: Antimicrobial activity against Escherichia coli at 120 ug/disk; assay type: functional; details: read-out: IZ
Escherichia coli [11] = assay: Antimicrobial activity against Escherichia coli at 60 ug/disk; assay type: functional; details: read-out: IZ
Escherichia coli [12] = assay: Antimicrobial activity against Escherichia coli at 30 ug/disk; assay type: functional; details: read-out: IZ
Pseudomonas aeruginosa [13] = assay: Antimicrobial activity against Pseudomonas aeruginosa at 120 ug/disk; assay type: functional; details: read-out: IZ
Pseudomonas aeruginosa [14] = assay: Antimicrobial activity against Pseudomonas aeruginosa at 60 ug/disk; assay type: functional; details: read-out: IZ
Pseudomonas aeruginosa [15] = assay: Antimicrobial activity against Pseudomonas aeruginosa at 30 ug/disk; assay type: functional; details: read-out: IZ
[16] = system: Trichophyton mentagrophytes; assay: Antimicrobial activity against Trichophyton mentagrophytes at 120 ug/disk; assay type: functional; details: read-out: IZ
[17] = system: Trichophyton mentagrophytes; assay: Antimicrobial activity against Trichophyton mentagrophytes at 15 ug/disk; assay type: functional; details: read-out: IZ
Bacillus subtilis [18] = assay: Antimicrobial activity against Bacillus subtilis at 15 ug/disk; assay type: functional; details: read-out: IZ
Escherichia coli [19] = assay: Antimicrobial activity against Escherichia coli at 15 ug/disk; assay type: functional; details: read-out: IZ
Pseudomonas aeruginosa [20] = assay: Antimicrobial activity against Pseudomonas aeruginosa at 15 ug/disk; assay type: functional; details: read-out: IZ

SMILES | zone of inhibition at 60 µg/disc [1] [mm] | zone of inhibition at 30 µg/disc [2] [mm] | Activity [3] [%] | Activity [4] [%] | Activity [5] [%] | Activity [6] [%] | IC50 (P388) [µg/mL] | zone of inhibition at 120 µg/disc (Bacillus subtilis [7]) [mm] | zone of inhibition at 60 µg/disc (Bacillus subtilis [8]) [mm] | zone of inhibition at 30 µg/disc (Bacillus subtilis [9]) [mm] | zone of inhibition at 120 µg/disc (Escherichia coli [10]) [mm] | zone of inhibition at 60 µg/disc (Escherichia coli [11]) [mm] | zone of inhibition at 30 µg/disc (Escherichia coli [12]) [mm] | zone of inhibition at 120 µg/disc (Pseudomonas aeruginosa [13]) [mm] | zone of inhibition at 60 µg/disc (Pseudomonas aeruginosa [14]) [mm] | zone of inhibition at 30 µg/disc (Pseudomonas aeruginosa [15]) [mm] | zone of inhibition at 120 µg/disc [16] [mm] | further results
C=C(CCO)C(=O)OC[C@H]1O[C@@H](Oc2ccc(O)cc2)[C@H](O)[C@@H](O)[C@@H]1O | 0 | 0 | 100 | 100 | 100 | 50 | > 25 | 0 | 0 | 0 | 0 | 0 | 0 | 0 | 0 | 0 | 0 | 
C=C(C(=O)OC[C@H]1O[C@@H](Oc2ccc(O)cc2)[C@H](O)[C@@H](O)[C@@H]1O)[C@@H](O)CO | 0 | 0 | 100 | 100 | 50 |  | 3 (≈ 7.76 µM) | 5 | 1 | 0 | 4 | 2 | 0 | 3 | 1 | 0 | 5 | 
OC[C@H]1O[C@@H](Oc2ccc(O)cc2)[C@H](O)[C@@H](O)[C@@H]1O [ARBUTIN] |  |  | 50 |  |  |  | > 25 | 0 |  |  | 0 |  |  | 0 |  |  | 0 | 
Oc1ccc(O)cc1 [HYDROQUINONE] | 0 | 0 | 100 | 100 | 75 |  | 3 (≈ 27.2 µM) | 9 | 4 | 3 | 5 | 0 | 0 | 3 | 3 | 2 | 10 | 
C=C1CCOC1=O [TULIPALINE A] | 0 | 0 | 100 | 100 | 100 | 100 | 0.8 (≈ 8.15 µM) | 10 | 0 | 0 | 5 | 0 | 0 | 4 | 0 | 0 | 8 | zone of inhibition at 15 µg/disc [17]: 0 mm; zone of inhibition at 15 µg/disc (Bacillus subtilis [18]): 0 mm; zone of inhibition at 15 µg/disc (Escherichia coli [19]): 0 mm; zone of inhibition at 15 µg/disc (Pseudomonas aeruginosa [20]): 0 mm
